pEC50: −log10 of the molar value. Like-named read-outs stand apart in the source and are kept apart here.
Test system: recombinant NL4-3 virus (Renilla luciferase) in MT-2 cells
Assay: HIV cell culture assay (antiviral activity, luciferase readout in infected MT-2 cells)
Format: cell-based
Conditions: Renilla
Outline: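 EC50 derived via median-effect equation from luciferase activity in MT-2 cells after 4–5 day infection, compound serially diluted. Virus: recombinant NL4-3 with Renilla luciferase replacing part of nef, made in 293T cells.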

[1] = NL43, read-out: Activity, antiviral activity class, recombinant NL4-3 Renilla luciferase virus in MT-2 cells
[2] = NL43, recombinant NL4-3 Renilla luciferase virus in MT-2 cells

Cc1ccccc1S(=O)(=O)NC(=O)N[C@@H](Cc1cc(F)cc(F)c1)C(=O)N(C)c1ccc(F)c(C(N)=O)c1 [Example CA-102, (S)-5-(3-(3,5-difluorophenyl)-N-methyl-2-(3-(o-tolylsulfonyl)ureido)propanamido)-2-fluorobenzamide]
pEC50 [1]: 5.00 to 6.00 | pEC50 [2]: 5.59

Cc1ccccc1S(=O)(=O)NC(=O)N[C@@H](Cc1cc(F)cc(F)c1)C(=O)N(C)c1ccc2cc[nH]c(=O)c2c1 [Example CA-103, (S)-3-(3,5-difluorophenyl)-N-methyl-N-(1-oxo-1,2-dihydroisoquinolin-7-yl)-2-(3-(o-tolylsulfonyl)ureido)propanamide]
pEC50 [1]: 5.00 to 6.00 | pEC50 [2]: 5.88

Cc1ccccc1S(=O)(=O)NC(=O)N[C@@H](Cc1cc(F)cc(F)c1)C(=O)N(C)c1ccc2cccnc2c1 [Example CA-104, (S)-3-(3,5-difluorophenyl)-N-methyl-N-(quinolin-7-yl)-2-(3-(o-tolylsulfonyl)ureido)propanamide]
pEC50 [1]: 6.00 to 7.00

Cc1ccccc1S(=O)(=O)NC(=O)N[C@@H](Cc1cc(F)cc(F)c1)C(=O)N(C)c1cc2ccccc2cn1 [Example CA-105, (S)-3-(3,5-difluorophenyl)-N-(isoquinolin-3-yl)-N-methyl-2-(3-(o-tolylsulfonyl)ureido)propanamide]
pEC50 [1]: 6.00 to 7.00

CNS(=O)(=O)c1cccc(N(C)C(=O)[C@H](Cc2cc(F)cc(F)c2)NC(=O)NS(=O)(=O)c2ccccc2C)c1 [Example CA-106, (S)-3-(3,5-difluorophenyl)-N-methyl-N-(3-(N-methylsulfamoyl)phenyl)-2-(3-(o-tolylsulfonyl)ureido)propanamide]
pEC50 [1]: 5.00 to 6.00

Cc1ccccc1S(=O)(=O)NC(=O)N[C@@H](Cc1cc(F)cc(F)c1)C(=O)N(C)c1ccccc1F [Example CA-107, (S)-3-(3,5-difluorophenyl)-N-(2-fluorophenyl)-N-methyl-2-(3-(o-tolylsulfonyl)ureido)propanamide]
pEC50 [1]: 5.00 to 6.00

Cc1ccccc1S(=O)(=O)NC(=O)N[C@@H](Cc1cc(F)cc(F)c1)C(=O)N(C)c1ccc(OC(F)(F)F)cc1 [Example CA-108, (S)-3-(3,5-difluorophenyl)-N-methyl-2-(3-(o-tolylsulfonyl)ureido)-N-(4-(trifluoromethoxy)phenyl)propanamide]
pEC50 [1]: 6.00 to 7.00

Cc1ccccc1S(=O)(=O)NC(=O)N[C@@H](Cc1cc(F)cc(F)c1)C(=O)N(C)c1cccc2ncccc12 [Example CA-109, (S)-3-(3,5-difluorophenyl)-N-methyl-N-(quinolin-5-yl)-2-(3-(o-tolylsulfonyl)ureido)propanamide]
pEC50 [1]: 6.00 to 7.00 | pEC50 [2]: 6.43

Cc1ccccc1S(=O)(=O)NC(=O)N[C@@H](Cc1cc(F)cc(F)c1)C(=O)N(C)c1cccc2cnccc12 [Example CA-110, (S)-3-(3,5-difluorophenyl)-N-(isoquinolin-5-yl)-N-methyl-2-(3-(o-tolylsulfonyl)ureido)propanamide]
pEC50 [1]: 6.00 to 7.00

Cc1ccccc1S(=O)(=O)NC(=O)N[C@@H](Cc1cc(F)cc(F)c1)C(=O)N(C)c1cccc(Cl)c1 [Example CA-111, (S)—N-(3-chlorophenyl)-3-(3,5-difluorophenyl)-N-methyl-2-(3-(o-tolylsulfonyl)ureido)propanamide]
pEC50 [1]: 5.00 to 6.00

Cc1ccccc1S(=O)(=O)NC(=O)N[C@@H](Cc1cc(F)cc(F)c1)C(=O)N(C)c1ccc(F)cc1F [Example CA-112, (S)—N-(2,4-difluorophenyl)-3-(3,5-difluorophenyl)-N-methyl-2-(3-(o-tolylsulfonyl)ureido)propanamide]
pEC50 [1]: 5.00 to 6.00 | pEC50 [2]: 5.89

COc1cc(N(C)C(=O)[C@H](Cc2ccccc2)NC(=O)NS(=O)(=O)c2ccccc2C)cc(OC)c1OC [Example JB-82, (S)—N-methyl-3-phenyl-2-(3-(o-tolylsulfonyl)ureido)-N-(3,4,5-trimethoxyphenyl)propanamide]
pEC50 [1]: 5.00 to 6.00

COc1ccc(N(C)C(=O)[C@H](Cc2ccccc2)NC(=O)NS(=O)(=O)c2ccccc2C)c(C)c1 [Example JB-83, (S)—N-(4-methoxy-2-methylphenyl)-N-methyl-3-phenyl-2-(3-(o-tolylsulfonyl)ureido)propanamide]
pEC50 [1]: 6.00 to 7.00

COc1cc(C)c(N(C)C(=O)[C@H](Cc2ccccc2)NC(=O)NS(=O)(=O)c2ccccc2C)cc1C [Example JB-84, (S)—N-(4-methoxy-2,5-dimethylphenyl)-N-methyl-3-phenyl-2-(3-(o-tolylsulfonyl)ureido)propanamide]
pEC50 [1]: 6.00 to 7.00

COc1ccc(N(C)C(=O)[C@H](Cc2ccccc2)NC(=O)NS(=O)(=O)c2c(C)n(C)c3ccccc23)cc1 [Example JB-85, (S)-2-(3-((1,2-dimethyl-1H-indol-3-yl)sulfonyl)ureido)-N-(4-methoxyphenyl)-N-methyl-3-phenylpropanamide]
pEC50 [1]: 6.00 to 7.00

COc1ccc(N(Cc2ccccc2)C(=O)[C@H](Cc2ccccc2)NC(=O)NS(=O)(=O)c2ccccc2C)cc1 [Example ZY-3, (S)—N-benzyl-N-(4-methoxyphenyl)-3-phenyl-2-(3-(o-tolylsulfonyl)ureido)propanamide]
pEC50 [1]: 5.00 to 6.00 | pEC50 [2]: 5.44

COc1ccc(N(Cc2ccncc2)C(=O)[C@H](Cc2ccccc2)NC(=O)NS(=O)(=O)c2ccccc2C)cc1 [Example ZY-4, (S)—N-(4-methoxyphenyl)-3-phenyl-N-(pyridin-4-ylmethyl)-2-(3-(o-tolylsulfonyl)ureido)propanamide]
pEC50 [1]: 5.00 to 6.00

COc1ccc(N(CCc2ccccc2)C(=O)[C@H](Cc2ccccc2)NC(=O)NS(=O)(=O)c2ccccc2C)cc1 [Example ZY-5, (S)—N-(4-methoxyphenyl)-N-phenethyl-3-phenyl-2-(3-(o-tolylsulfonyl)ureido)propanamide]
pEC50 [1]: 4.00 to 5.00 | pEC50 [2]: 4.94

COc1ccc(N(CC(C)C)C(=O)[C@H](Cc2ccccc2)NC(=O)NS(=O)(=O)c2ccccc2C)cc1 [Example ZY-6, (S)—N-isobutyl-N-(4-methoxyphenyl)-3-phenyl-2-(3-(o-tolylsulfonyl)ureido)propanamide]
pEC50 [1]: 5.00 to 6.00

Cc1ccccc1S(=O)(=O)NC(=O)N[C@@H](Cc1cc(F)cc(F)c1)C(=O)N(C)c1ccc2scnc2c1 [Example ZY-7, (S)—N-(benzo[d]thiazol-5-yl)-3-(3,5-difluorophenyl)-N-methyl-2-(3-(o-tolylsulfonyl)ureido)propanamide]
pEC50 [1]: > 7.00

CN(C(=O)[C@H](Cc1cc(F)cc(F)c1)NC(=O)NS(=O)(=O)c1ccccc1Cl)c1ccc2scnc2c1 [Example ZY-13, (S)—N-(benzo[d]thiazol-5-yl)-2-(3-((2-chlorophenyl)sulfonyl)ureido)-3-(3,5-difluorophenyl)-N-methylpropanamide]
pEC50 [1]: > 7.00 | pEC50 [2]: 7.52

CN(C(=O)[C@H](Cc1cc(F)cc(F)c1)NC(=O)NS(=O)(=O)c1cc(F)ccc1F)c1ccc2scnc2c1 [Example ZY-14, (S)—N-(benzo[d]thiazol-5-yl)-3-(3,5-difluorophenyl)-2-(3-((2,5-difluorophenyl)sulfonyl)ureido)-N-methylpropanamide]
pEC50 [1]: 6.00 to 7.00

CN(C(=O)[C@H](Cc1cc(F)cc(F)c1)NC(=O)NS(=O)(=O)c1ccccc1F)c1ccc2scnc2c1 [Example ZY-16, (S)—N-(benzo[d]thiazol-5-yl)-3-(3,5-difluorophenyl)-2-(3-((2-fluorophenyl)sulfonyl)ureido)-N-methylpropanamide]
pEC50 [1]: > 7.00

Reference: patent publication US10035760B2, “Inhibitors of human immunodeficiency virus replication” (priority 2013, dated 2018)
